Earlier results in US6740653B2, “Shelf life extension of microemulsions containing active aza biocide” (ISP Investments Inc., priority 2001, dated 2004).

## Cc1ccc(/N=C/N(C)/C=N/c2ccc(C)cc2C)c(C)c1 [Amitraz]
  soluble in water: 1 mg/L
